Assay: Dissolving the compound with solubilizer in heated, vacuum-stirred water for injection under nitrogen or argon gas (preparation tank)
Assay type: physicochemical
Conditions: kept at 80 °C
Description: In view of this, the present invention provides a method for dissolving a carbon glycoside compound or a stilbene compound, characterized in that the method comprises the following steps: • heating water for injection to 80-98 °C, followed by stirring under vacuum condition at 30-80 °C, and then adding the carbon glycoside compound or the stilbene compound along with a solubilizer under the protection of nitrogen gas or argon gas to obtain a solution of said compounds; • wherein the solubilizer is one or a mixture of two or more of gastrodin, water-soluble cyclodextrin and ethanol, and wherein the water-soluble cyclodextrin is one or a mixture of two or more of methyl-β-cyclodextrin, thioether-β-cyclodextrin and sulfobutyl ether-β-cyclodextrin; and • wherein the mass ratio of the carbon glycoside compound or the stilbene compound to the solubilizer is 1:1-20.
Disclosed is a method for dissolving a flavonoid compound, a carbon glycoside compound or a stilbene compound, including: • mixing the flavonoid compound, the carbon glycoside compound or the stilbene compound with a solubilizer to obtain a reactant; and • heating water for injection to 80-98 °C, followed by stirring under vacuum conditions at 30-80 °C, and then adding the reactant under the protection of nitrogen gas or argon gas to obtain a solution of the reactant.
Considering the sensitivity to heat or light of the flavonoid compound, the carbon glycoside compound or the stilbene compound, a method is provided by heating water for injection to 80-98 °C to remove dissolved oxygen and other gases in water, which reduces the surface tension of water, increases the contact area of water with the flavonoid compound, the carbon glycoside compound or the stilbene compound, thus increasing the dissolution speed. Meanwhile, pre-heating the water for injection can effectively avoid degradation of the flavonoid compound, the carbon glycoside compound or the stilbene compound due to exposure to the dissolved oxygen, to eliminate unstable factors of the flavonoid compound, the carbon glycoside compound or the stilbene compound. The vacuum conditions can achieve further deoxygenation, facilitating the dissolution of the flavonoid compound, the carbon glycoside compound or the stilbene compound in water. Nitrogen gas or argon gas provides an inert atmosphere, which further reduces the surface tension of the materials, increases the contact area of the flavonoid compound, the carbon glycoside compound or the stilbene compound with water, and increases the dissolution speed.

CC(=O)Cc1cc(=O)c2c(C)cc(O)c([C@@H]3O[C@H](CO)[C@@H](O)[C@H](O)[C@H]3O)c2o1 [Aloesin]
dissolved in (time) (Example 22: 10 g with Hydroxypropyl-β-cyclodextrin 50 g, Sodium bicarbonate 1 g in 1000 ml, water heated to 88 °C, vacuum stirring 35 minutes, argon gas): about 5 minutes | dissolved in (time) (Example 26: 5 g with Gastrodin 100 g, Disodium edetate 0.1 g in 1000 ml, water heated to 95 °C, vacuum stirring 10 minutes, nitrogen gas): about 10 minutes

O=c1cc(-c2ccccc2)oc2cc(O)c(O)c(O)c12 [Baicalein]
dissolved in (time) (Example 9: 10 g with Sulfobutyl ether-β-cyclodextrin 50 g, Sodium bicarbonate 1 g in 1000 ml, water heated to 90 °C, vacuum stirring 20 minutes, argon gas): about 5 minutes

O=C(O)[C@H]1O[C@@H](Oc2cc3oc(-c4ccccc4)cc(=O)c3c(O)c2O)[C@H](O)[C@@H](O)[C@@H]1O [Baicalin]
dissolved in (time) (Example 10: 5 g with Gastrodin 100 g, Disodium edetate 0.1 g, Sodium carbonate 5 g in 1000 ml, water heated to 95 °C, vacuum stirring 10 minutes, nitrogen gas): about 5 minutes

O=C1c2c(O)cccc2C([C@@H]2O[C@H](CO)[C@@H](O)[C@H](O)[C@H]2O)c2cc(CO)cc(O)c21 (some centres unmarked) [Barbaloin]
dissolved in (time) (Example 19: 25 g with Gastrodin 100 g, Methyl-β-cyclodextrin 50 g, Sodium bicarbonate 1 g in 1000 ml, water heated to 95 °C, vacuum stirring 10 minutes, argon gas): about 10 minutes | dissolved in (time) (Example 23: 10 g with Methyl-β-cyclodextrin 50 g, Sodium bicarbonate 1 g in 1000 ml, water heated to 98 °C, vacuum stirring 10 minutes, argon gas): about 5 minutes | dissolved in (time) (Example 30: 5 g with Gastrodin 100 g, Disodium edetate 0.1 g in 1000 ml, water heated to 95 °C, vacuum stirring 10 minutes, nitrogen gas): about 10 minutes

COc1c(O)cc2c(c1O)[C@@H]1O[C@H](CO)[C@@H](O)[C@H](O)[C@H]1OC2=O [Bergenin]
dissolved in (time) (Example 21: 25 g with Gastrodin 100 g, Sulfobutyl ether-β-cyclodextrin 50 g, Sodium bicarbonate 1 g in 1000 ml, water heated to 85 °C, vacuum stirring 50 minutes, argon gas): about 10 minutes | dissolved in (time) (Example 25: 10 g with Sulfobutyl ether-β-cyclodextrin 50 g, Sodium bicarbonate 1 g in 1000 ml, water heated to 95 °C, vacuum stirring 10 minutes, argon gas): about 5 minutes | dissolved in (time) (Example 28: 5 g with Gastrodin 100 g, Disodium edetate 0.1 g in 1000 ml, water heated to 95 °C, vacuum stirring 10 minutes, nitrogen gas): about 10 minutes

O=c1c(-c2ccc(O)cc2)coc2cc(O)ccc12 [Daidzein]
dissolved in (time) (Example 7: 10 g with Methyl-β-cyclodextrin 50 g, Sodium bicarbonate 1 g in 1000 ml, water heated to 80 °C, vacuum stirring 60 minutes, argon gas): about 5 minutes

COc1ccc(/C=C/c2cc(O)cc(O[C@@H]3O[C@H](CO)[C@@H](O)[C@H](O)[C@H]3O)c2)cc1 [Deoxyrhapontin (methyl polydatin), Deoxyrhapontin]
dissolved in (time) (Example 43: 50 g with Gastrodin 100 g, Methyl-β-cyclodextrin 30 g in 1000 ml, water heated to 98 °C, vacuum stirring 15 minutes, nitrogen gas): about 5 minutes | dissolved in (time) (Example 49: 5 g with Sulfobutyl ether-β-cyclodextrin 30 g in 1000 ml, water heated to 95 °C, vacuum stirring 10 minutes, nitrogen gas): about 5 minutes | dissolved in (time) (Example 57: 10 g with Hydroxypropyl-β-cyclodextrin 50 g (formula; text: sulfobutyl ether-β-cyclodextrin) in 1000 ml, water heated to 95 °C, vacuum stirring 10 minutes, nitrogen gas): about 5 minutes | dissolved in (time) (Example 67: 5 g with Gastrodin 100 g in 1000 ml, water heated to 95 °C, vacuum stirring 10 minutes, nitrogen gas): about 5 minutes

O=C1CC(c2ccccc2)Oc2cc(O)c(O)c(O)c21 (centres unmarked) [Dihydrobaicalein]
dissolved in (time) (Example 13: 5 g with Gastrodin 100 g, Disodium edetate 0.1 g, Sodium carbonate 3 g in 1000 ml, water heated to 90 °C, vacuum stirring 25 minutes, nitrogen gas): about 5 minutes

COc1ccc([C@@H]2CC(=O)c3c(O)cc(O)cc3O2)cc1O [Hesperetin]
dissolved in (time) (Example 15: 5 g with Gastrodin 100 g, Disodium edetate 0.1 g, Sodium carbonate 2 g in 1000 ml, water heated to 95 °C, vacuum stirring 10 minutes, nitrogen gas): about 5 minutes

O=c1cc(-c2ccc(O)c(O)c2)oc2cc(O)c([C@@H]3O[C@H](CO)[C@@H](O)[C@H](O)[C@H]3O)c(O)c12 [Homoorientin]
dissolved in (time) (Example 20: 25 g with Gastrodin 100 g, Thioether-β-cyclodextrin 50 g, Sodium bicarbonate 1 g in 1000 ml, water heated to 80 °C, vacuum stirring 60 minutes, argon gas): about 10 minutes | dissolved in (time) (Example 24: 10 g with Thioether-β-cyclodextrin 50 g, Sodium bicarbonate 1 g in 1000 ml, water heated to 95 °C, vacuum stirring 10 minutes, argon gas): about 5 minutes

COc1ccc(-c2oc3cc(O)cc(O)c3c(=O)c2O)cc1 [Kaempferide]
dissolved in (time) (Example 4: 25 g with Gastrodin 100 g, Thioether-β-cyclodextrin 50 g, Sodium carbonate 1 g in 1000 ml, water heated to 98 °C, vacuum stirring 5 minutes, argon gas): about 5 minutes

Oc1ccc2c(c1)OC[C@H]1c3cc4c(cc3O[C@@H]21)OCO4 [Maackiain]
dissolved in (time) (Example 12: 5 g with Gastrodin 100 g, Disodium edetate 0.1 g, Sodium carbonate 3 g in 1000 ml, water heated to 95 °C, vacuum stirring 10 minutes, nitrogen gas): about 5 minutes

O=C1C[C@@H](c2ccc(O)cc2)Oc2cc(O)cc(O)c21 [Naringenin]
dissolved in (time) (Example 14: 5 g with Gastrodin 100 g, Disodium edetate 0.1 g, Sodium carbonate 2 g in 1000 ml, water heated to 98 °C, vacuum stirring 10 minutes, nitrogen gas): about 5 minutes

OC[C@H]1O[C@@H](Oc2cc(O)cc(/C=C/c3ccc(O)cc3)c2)[C@H](O)[C@@H](O)[C@@H]1O [Polydatin]
dissolved in (time) (Example 41: 25 g with Gastrodin 80 g, Sulfobutyl ether-β-cyclodextrin 30 g in 1000 ml, water heated to 85 °C, vacuum stirring 45 minutes, nitrogen gas): about 5 minutes | dissolved in (time) (Example 46: 5 g with Hydroxypropyl-β-cyclodextrin 30 g in 1000 ml, water heated to 83 °C, vacuum stirring 25 minutes, nitrogen gas): about 5 minutes | dissolved in (time) (Example 54: 10 g with Hydroxypropyl-β-cyclodextrin 50 g in 1000 ml, water heated to 95 °C, vacuum stirring 10 minutes, nitrogen gas): about 5 minutes | dissolved in (time) (Example 64: 5 g with Gastrodin 100 g in 1000 ml, water heated to 95 °C, vacuum stirring 10 minutes, nitrogen gas): about 5 minutes

O=c1c(-c2ccc(O)cc2)coc2c([C@@H]3O[C@H](CO)[C@@H](O)[C@H](O)[C@H]3O)c(O)ccc12 [Puerarin]
dissolved in (time) (Example 5: 25 g with Gastrodin 100 g, Sulfobutyl ether-β-cyclodextrin 50 g, Sodium carbonate 1 g in 1000 ml, water heated to 95 °C, vacuum stirring 3 minutes, argon gas): about 5 minutes | dissolved in (time) (Example 6 (formula: Daidzin 10 g) with Hydroxypropyl-β-cyclodextrin 50 g, Sodium bicarbonate 1 g in 1000 ml, water heated to 95 °C, vacuum stirring 8 minutes, argon gas): about 5 minutes

O=c1c(O)c(-c2ccc(O)c(O)c2)oc2cc(O)cc(O)c12 [Quercetin]
dissolved in (time) (Example 3: 25 g with Gastrodin 100 g, Methyl-β-cyclodextrin 50 g, Sodium carbonate 1 g in 1000 ml, water heated to 95 °C, vacuum stirring 1 minute, argon gas): about 5 minutes

Oc1ccc(C=Cc2cc(O)cc(O)c2)cc1 [Resveratrol]
dissolved in (time) (Example 39: 25 g with Gastrodin 80 g, Methyl-β-cyclodextrin 30 g in 1000 ml, water heated to 80 °C, vacuum stirring 60 minutes, nitrogen gas): about 5 minutes | dissolved in (time) (Example 44: 50 g with Gastrodin 100 g, Thioether-β-cyclodextrin 30 g in 1000 ml, water heated to 95 °C, vacuum stirring 10 minutes, nitrogen gas): about 5 minutes | dissolved in (time) (Example 50: 10 g with Hydroxypropyl-β-cyclodextrin 30 g in 1000 ml, water heated to 95 °C, vacuum stirring 10 minutes, nitrogen gas): about 5 minutes | dissolved in (time) (Example 60: 20 g with Thioether-β-cyclodextrin 50 g in 1000 ml, water heated to 95 °C, vacuum stirring 10 minutes, nitrogen gas): about 5 minutes

COc1ccc(/C=C/c2cc(O)cc(O[C@@H]3O[C@H](CO)[C@@H](O)[C@H](O)[C@H]3O)c2)cc1O [Rhapontin]
dissolved in (time) (Example 42: 50 g with Gastrodin 100 g, Hydroxypropyl-β-cyclodextrin 30 g in 1000 ml, water heated to 95 °C, vacuum stirring 10 minutes, nitrogen gas): about 5 minutes | dissolved in (time) (Example 48: 5 g with Thioether-β-cyclodextrin 30 g in 1000 ml, water heated to 92 °C, vacuum stirring 40 minutes, nitrogen gas): about 5 minutes | dissolved in (time) (Example 56: 10 g with Thioether-β-cyclodextrin 50 g in 1000 ml, water heated to 95 °C, vacuum stirring 10 minutes, nitrogen gas): about 5 minutes | dissolved in (time) (Example 66: 5 g with Gastrodin 100 g in 1000 ml, water heated to 95 °C, vacuum stirring 10 minutes, nitrogen gas): about 5 minutes

Breviscapine
dissolved in (time) (Example 1: 5 g with Gastrodin 100 g, Sodium carbonate 10 g in 1000 ml, water heated to 95 °C, vacuum stirring 10 minutes, nitrogen gas): about 5 minutes | dissolved in (time) (Example 2: 25 g with Gastrodin 100 g, Hydroxypropyl-β-cyclodextrin 50 g, Sodium carbonate 1 g in 1000 ml, water heated to 95 °C, vacuum stirring 10 minutes, argon gas): about 5 minutes | dissolved in (time) (Example 8 (formula: Wogonin 10 g) with Thioether-β-cyclodextrin 50 g, Sodium bicarbonate 1 g in 1000 ml, water heated to 85 °C, vacuum stirring 30 minutes, argon gas): about 5 minutes

Taxinine
dissolved in (time) (Example 16: 12 g with Sulfobutyl ether-β-cyclodextrin 40 g in 1000 ml, water heated to 95 °C, vacuum stirring 10 minutes, nitrogen gas): about 5 minutes

Source: patent publication EP2832348B1, “METHOD FOR DISSOLVING FLAVONOID COMPOUND, CARBON GLYCOSIDE COMPOUND, OR STILBENE COMPOUND AND METHOD FOR PREPARING AN INJECTION OR A POWDER FOR INJECTION” (Kunming Pharmaceutical Corp., priority 2012, dated 2013)
